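The compound was tested at five concentrations on cells cultured in 96-well plates, with a 48-hour exposure period. TGI: total growth inhibition.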
Columns and labels:
Assay in all cases: inhibition of tumour cell growth, NCI panel, 48 h
HOP-62 NSCLC = test system: HOP-62 NSCLC
EKVX NSCLC = test system: EKVX NSCLC
RXF 393 renal = test system: RXF 393 renal
MOLT-4 leukemia = test system: MOLT-4 leukemia
LOX IMVI melanoma = test system: LOX IMVI melanoma
M14 melanoma = test system: M14 melanoma
OVCAR-3 ovarian = test system: OVCAR-3 ovarian
TK-10 renal = test system: TK-10 renal
MALME-3M melanoma = test system: MALME-3M melanoma
KM12 colon = test system: KM12 colon
A498 renal = test system: A498 renal
IGROV1 ovarian = test system: IGROV1 ovarian
MCF7 breast = test system: MCF7 breast
UO-31 renal = test system: UO-31 renal
SR leukemia = test system: SR leukemia
SW-620 colon = test system: SW-620 colon
UACC-62 melanoma = test system: UACC-62 melanoma
HL-60(TB) leukemia = test system: HL-60(TB) leukemia
SF-295 CNS = test system: SF-295 CNS
SK-MEL-2 melanoma = test system: SK-MEL-2 melanoma
COLO 205 colon = test system: COLO 205 colon
K-562 leukemia = test system: K-562 leukemia
T-47D breast = test system: T-47D breast
NCI-H226 lung = test system: NCI-H226 lung
DU-145 prostate = test system: DU-145 prostate
MDA-MB-231 breast = test system: MDA-MB-231 breast
NCI/ADR-RES ovarian = test system: NCI/ADR-RES ovarian
U251 CNS = test system: U251 CNS
OVCAR-5 ovarian = test system: OVCAR-5 ovarian
HCC-2998 colon = test system: HCC-2998 colon
SF-539 CNS = test system: SF-539 CNS
HCT-116 colon = test system: HCT-116 colon
BT-549 breast = test system: BT-549 breast
UACC-257 melanoma = test system: UACC-257 melanoma
OVCAR-4 ovarian = test system: OVCAR-4 ovarian
SNB-19 CNS = test system: SNB-19 CNS
SK-MEL-28 melanoma = test system: SK-MEL-28 melanoma
HT29 colon = test system: HT29 colon
786-0 renal = test system: 786-0 renal
OVCAR-8 ovarian = test system: OVCAR-8 ovarian
HS 578T breast = test system: HS 578T breast
SN12C renal = test system: SN12C renal
MDA-N = test system: MDA-N
PC-3 prostate = test system: PC-3 prostate
ACHN renal = test system: ACHN renal
NCI-H23 lung = test system: NCI-H23 lung
CCRF-CEM leukemia = test system: CCRF-CEM leukemia
HCT-15 colon = test system: HCT-15 colon
RPMI-8226 leukemia = test system: RPMI-8226 leukemia
CAKI-1 renal = test system: CAKI-1 renal
MDA-MB-435 = test system: MDA-MB-435
SNB-75 CNS = test system: SNB-75 CNS
HOP-92 NSCLC = test system: HOP-92 NSCLC
SF-268 CNS = test system: SF-268 CNS
SK-OV-3 ovarian = test system: SK-OV-3 ovarian
NCI-H460 lung = test system: NCI-H460 lung
A549 NSCLC = test system: A549 NSCLC
SK-MEL-5 melanoma = test system: SK-MEL-5 melanoma

`CCOC(=O)c1cc2cc(Cc3ccc4[nH]c(C(=O)OCC)cc4c3)ccc2[nH]1` was tested, and the TGI (HOP-62 NSCLC) was 23 µM, the TGI (EKVX NSCLC) was 78.9 µM and the TGI (RXF 393 renal) was 29.4 µM. For the same compound, the TGI (MOLT-4 leukemia) was over 100 µM, the TGI (LOX IMVI melanoma) was over 100 µM and the TGI (M14 melanoma) was over 100 µM. For the same compound, the TGI (OVCAR-3 ovarian) was over 100 µM, the TGI (TK-10 renal) was 31.4 µM and the TGI (MALME-3M melanoma) was over 100 µM. For the same compound, the TGI (KM12 colon) was over 100 µM, the TGI (A498 renal) was 36.4 µM and the TGI (IGROV1 ovarian) was 35.7 µM. The TGI (MCF7 breast) was over 100 µM, the TGI (UO-31 renal) was over 100 µM and the TGI (SR leukemia) was over 100 µM. For the same compound, the TGI (SW-620 colon) was over 100 µM, the TGI (UACC-62 melanoma) was 36.3 µM and the TGI (HL-60(TB) leukemia) was over 100 µM. For the same compound, the TGI (SF-295 CNS) was 55.5 µM, the TGI (SK-MEL-2 melanoma) was 81.1 µM and the TGI (COLO 205 colon) was over 100 µM. For the same compound, the TGI (K-562 leukemia) was over 100 µM, the TGI (T-47D breast) was over 100 µM and the TGI (NCI-H226 lung) was 62.4 µM. For the same compound, the TGI (DU-145 prostate) was over 100 µM, the TGI (MDA-MB-231 breast) was 37.9 µM and the TGI (NCI/ADR-RES ovarian) was 52.6 µM. The TGI (U251 CNS) was 29.9 µM, the TGI (OVCAR-5 ovarian) was over 100 µM and the TGI (HCC-2998 colon) was over 100 µM. For the same compound, the TGI (SF-539 CNS) was 36.3 µM, the TGI (HCT-116 colon) was over 100 µM and the TGI (BT-549 breast) was 26.8 µM. For the same compound, the TGI (UACC-257 melanoma) was over 100 µM, the TGI (OVCAR-4 ovarian) was 21.4 µM and the TGI (SNB-19 CNS) was 30.6 µM. It also gave a TGI (SK-MEL-28 melanoma) of over 100 µM, a TGI (HT29 colon) of over 100 µM and a TGI (786-0 renal) of 13 µM. It also gave a TGI (OVCAR-8 ovarian) of 23.6 µM, a TGI (HS 578T breast) of 72.8 µM and a TGI (SN12C renal) of over 100 µM. The TGI (MDA-N) was over 100 µM, the TGI (PC-3 prostate) was over 100 µM and the TGI (ACHN renal) was 44 µM. For the same compound, the TGI (NCI-H23 lung) was 37.9 µM, the TGI (CCRF-CEM leukemia) was over 100 µM and the TGI (HCT-15 colon) was over 100 µM. For the same compound, the TGI (RPMI-8226 leukemia) was over 100 µM, the TGI (CAKI-1 renal) was 34.3 µM and the TGI (MDA-MB-435) was over 100 µM. For the same compound, the TGI (SNB-75 CNS) was 27.9 µM, the TGI (HOP-92 NSCLC) was 27.8 µM and the TGI (SF-268 CNS) was 38.5 µM. For the same compound, the TGI (SK-OV-3 ovarian) was 55.4 µM and the TGI (NCI-H460 lung) was over 100 µM.

With `Fc1cccc(F)c1C1SCC2=Nc3ccccc3CN21` (stereo not drawn) the TGI (HOP-62 NSCLC) was 84.4 µM, the TGI (EKVX NSCLC) was over 100 µM and the TGI (RXF 393 renal) was 63.2 µM. It also gave a TGI (MOLT-4 leukemia) of over 100 µM, a TGI (LOX IMVI melanoma) of over 100 µM and a TGI (M14 melanoma) of over 100 µM. The TGI (OVCAR-3 ovarian) was 47.5 µM, the TGI (TK-10 renal) was over 100 µM and the TGI (KM12 colon) was over 100 µM. It also gave a TGI (A498 renal) of over 100 µM, a TGI (IGROV1 ovarian) of over 100 µM and a TGI (MCF7 breast) of over 100 µM. For the same compound, the TGI (UO-31 renal) was over 100 µM, the TGI (SR leukemia) was over 100 µM and the TGI (A549 NSCLC) was over 100 µM. For the same compound, the TGI (SW-620 colon) was over 100 µM, the TGI (UACC-62 melanoma) was over 100 µM and the TGI (HL-60(TB) leukemia) was over 100 µM. The TGI (SF-295 CNS) was over 100 µM, the TGI (COLO 205 colon) was over 100 µM and the TGI (K-562 leukemia) was over 100 µM. It also gave a TGI (T-47D breast) of over 100 µM, a TGI (DU-145 prostate) of over 100 µM and a TGI (MDA-MB-231 breast) of over 100 µM. It also gave a TGI (SK-MEL-5 melanoma) of over 100 µM, a TGI (NCI/ADR-RES ovarian) of 79.5 µM and a TGI (U251 CNS) of over 100 µM. It also gave a TGI (OVCAR-5 ovarian) of over 100 µM, a TGI (HCC-2998 colon) of over 100 µM and a TGI (SF-539 CNS) of 92.7 µM. For the same compound, the TGI (HCT-116 colon) was over 100 µM, the TGI (BT-549 breast) was over 100 µM and the TGI (UACC-257 melanoma) was over 100 µM. For the same compound, the TGI (OVCAR-4 ovarian) was over 100 µM, the TGI (SNB-19 CNS) was over 100 µM and the TGI (SK-MEL-28 melanoma) was over 100 µM. The TGI (786-0 renal) was over 100 µM, the TGI (HS 578T breast) was over 100 µM and the TGI (SN12C renal) was over 100 µM. For the same compound, the TGI (MDA-N) was over 100 µM, the TGI (PC-3 prostate) was over 100 µM and the TGI (ACHN renal) was over 100 µM. The TGI (NCI-H23 lung) was over 100 µM, the TGI (CCRF-CEM leukemia) was over 100 µM and the TGI (HCT-15 colon) was over 100 µM. The TGI (RPMI-8226 leukemia) was over 100 µM, the TGI (CAKI-1 renal) was over 100 µM and the TGI (MDA-MB-435) was over 100 µM. It also gave a TGI (SNB-75 CNS) of 81.8 µM, a TGI (HOP-92 NSCLC) of over 100 µM and a TGI (SK-OV-3 ovarian) of over 100 µM. For the same compound, the TGI (NCI-H460 lung) was over 100 µM.
